Reference: paper PMC7406649, “The rare sugar D-tagatose protects plants from downy mildews and is a safe fungicidal agrochemical” (Communications Biology, 2020)

Assays:
Assay type in all cases: biochemical
fructokinase (LC500344) = molecular target: T1, fructokinase (LC500344) (Hyaloperonospora arabidopsidis, UniProt A0A7G1GEU5); assay: Dixon plot; coupled pyruvate kinase/lactate dehydrogenase NADH assay at […] nm; details: competitive with D-fructose (0.5-2.5 mM); 10-250 mM D-tagatose; 4 mM ATP, 8 mM MgCl2, pH 7.5, 25 °C; D-tagatose is also a substrate
T1 construct: coding region in pGEX5X-1, N-terminal GST tag kept (58 kDa with tag), expressed in E. coli SoluBL21, GSTrap purified; equivalent to Hpa812304 of isolate Emoy2
T1 sequence (A0A7G1GEU5 1-297): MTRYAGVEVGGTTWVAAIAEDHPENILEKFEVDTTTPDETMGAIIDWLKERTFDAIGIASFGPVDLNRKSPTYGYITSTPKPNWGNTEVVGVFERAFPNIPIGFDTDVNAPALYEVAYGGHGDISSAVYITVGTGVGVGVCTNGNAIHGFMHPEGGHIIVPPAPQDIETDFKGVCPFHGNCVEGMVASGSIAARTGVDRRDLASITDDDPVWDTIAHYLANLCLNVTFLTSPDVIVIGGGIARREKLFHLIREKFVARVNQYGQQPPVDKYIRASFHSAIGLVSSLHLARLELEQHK

[1] = molecular target: T2, phosphomannose isomerase (LC500563) (Hyaloperonospora arabidopsidis, UniProt A0A7G1GEM8); assay: HPLC of ABEE-labelled products; D-glucose 6-phosphate formation; details: read-out: % inhibition at 37.5 mM
T2 construct: coding region in pColdI, His tag kept (45 kDa), expressed in E. coli SHuffle Express, HisTrap purified; equivalent to Hpa802576 of isolate Emoy2
T2 sequence (A0A7G1GEM8 1-415): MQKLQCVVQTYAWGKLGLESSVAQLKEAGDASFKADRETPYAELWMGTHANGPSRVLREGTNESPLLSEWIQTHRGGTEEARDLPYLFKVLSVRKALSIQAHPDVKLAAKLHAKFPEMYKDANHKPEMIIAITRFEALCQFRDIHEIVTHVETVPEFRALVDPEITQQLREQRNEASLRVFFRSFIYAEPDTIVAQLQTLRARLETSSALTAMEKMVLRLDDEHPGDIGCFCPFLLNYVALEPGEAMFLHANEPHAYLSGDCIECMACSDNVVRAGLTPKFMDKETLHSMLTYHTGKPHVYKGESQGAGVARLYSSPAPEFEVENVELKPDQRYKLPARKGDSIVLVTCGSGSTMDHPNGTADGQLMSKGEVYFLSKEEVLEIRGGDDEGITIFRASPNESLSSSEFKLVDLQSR

[2] = molecular target: T2, phosphomannose isomerase (LC500563); assay: HPLC of ABEE-labelled products; D-mannose 6-phosphate formation; details: read-out: % inhibition at 37.5 mM
[3] = molecular target: T2, phosphomannose isomerase (LC500563); assay: HPLC of ABEE-labelled products; details: 2.5 mM substrate, 10 mM MgCl2, pH 7.4, 30 °C, 6 h; products D-glucose 6-phosphate and D-mannose 6-phosphate

OCC1(O)OC[C@@H](O)[C@H](O)[C@@H]1O (stereo partly drawn) [D-tagatose]
Ki (fructokinase (LC500344)): 70 ± 5.14 mM

O=P(O)(O)OC[C@H]1OC(O)(CO)[C@@H](O)[C@H]1O (stereo partly drawn) [D-tagatose 6-phosphate]
inhibition at 37500 µM [1]: 38.2%
inhibition at 37500 µM [2]: 60.8%

O=P(O)(O)OC[C@H]1OC(O)(CO)[C@@H](O)[C@@H]1O (stereo partly drawn) [D-fructose 6-phosphate]
HPLC of ABEE-labelled products [3]: both D-glucose 6-phosphate and D-mannose 6-phosphate were detected after the addition of D-fructose 6-phosphate
